Measured values reported in PubChem BioAssay (NCI).
“And” between values parts separate entries of the source, which are not always exact repeats. Equal entries are not always repeated.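 1) Cells in 96-well plates. 2) Compound, 48 h, 5 concentrations. 3) Linear interpolation between surrounding doses. 4) Unreached endpoint = highest concentration. GI50 marks 50% less growth. The concentration for full growth arrest is given as TGI.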

Key:
Assay in all cases: DTP human tumour cell line panel, 48 h
PC-3 prostate = test system: PC-3 prostate
HCC-2998 colon = test system: HCC-2998 colon
SF-268 CNS = test system: SF-268 CNS
HCT-15 colon = test system: HCT-15 colon
HS 578T breast = test system: HS 578T breast
OVCAR-4 ovarian = test system: OVCAR-4 ovarian
BT-549 breast = test system: BT-549 breast
MOLT-4 leukemia = test system: MOLT-4 leukemia
RPMI-8226 leukemia = test system: RPMI-8226 leukemia
KM12 colon = test system: KM12 colon
NCI/ADR-RES ovarian = test system: NCI/ADR-RES ovarian
SW-620 colon = test system: SW-620 colon
786-0 renal = test system: 786-0 renal
SNB-19 CNS = test system: SNB-19 CNS
LOX IMVI melanoma = test system: LOX IMVI melanoma
K-562 leukemia = test system: K-562 leukemia
OVCAR-8 ovarian = test system: OVCAR-8 ovarian
MCF7 breast = test system: MCF7 breast
TK-10 renal = test system: TK-10 renal
SR leukemia = test system: SR leukemia
SNB-75 CNS = test system: SNB-75 CNS
HT29 colon = test system: HT29 colon
HCT-116 colon = test system: HCT-116 colon
NCI-H226 lung = test system: NCI-H226 lung
NCI-H23 lung = test system: NCI-H23 lung
IGROV1 ovarian = test system: IGROV1 ovarian
CCRF-CEM leukemia = test system: CCRF-CEM leukemia
SN12C renal = test system: SN12C renal
SK-MEL-28 melanoma = test system: SK-MEL-28 melanoma
A549 NSCLC = test system: A549 NSCLC
SF-295 CNS = test system: SF-295 CNS
CAKI-1 renal = test system: CAKI-1 renal
MALME-3M melanoma = test system: MALME-3M melanoma
MDA-MB-435 = test system: MDA-MB-435
EKVX NSCLC = test system: EKVX NSCLC
NCI-H460 lung = test system: NCI-H460 lung
DU-145 prostate = test system: DU-145 prostate
M14 melanoma = test system: M14 melanoma
SK-MEL-5 melanoma = test system: SK-MEL-5 melanoma
T-47D breast = test system: T-47D breast
ACHN renal = test system: ACHN renal
OVCAR-5 ovarian = test system: OVCAR-5 ovarian
COLO 205 colon = test system: COLO 205 colon
OVCAR-3 ovarian = test system: OVCAR-3 ovarian
SF-539 CNS = test system: SF-539 CNS
A498 renal = test system: A498 renal
HL-60(TB) leukemia = test system: HL-60(TB) leukemia
SK-OV-3 ovarian = test system: SK-OV-3 ovarian
HOP-92 NSCLC = test system: HOP-92 NSCLC
U251 CNS = test system: U251 CNS
HOP-62 NSCLC = test system: HOP-62 NSCLC
SK-MEL-2 melanoma = test system: SK-MEL-2 melanoma
RXF 393 renal = test system: RXF 393 renal
NCI-H522 lung = test system: NCI-H522 lung
UO-31 renal = test system: UO-31 renal
MDA-MB-231 breast = test system: MDA-MB-231 breast
UACC-257 melanoma = test system: UACC-257 melanoma
UACC-62 melanoma = test system: UACC-62 melanoma

Compound: COc1cc2c(c(O)c1Cl)C(=O)c1c(O)cc(C[C@H](C)O)cc1[C@H]2[C@H]1c2cc(C[C@H](C)O)cc(O)c2C(=O)c2c1cc(OC)c(Cl)c2O
- TGI (PC-3 prostate): 75000 nM and > 100000 nM
- TGI (HCC-2998 colon): 75000 nM and > 100000 nM
- GI50 (SF-268 CNS): 3360 nM and 31500 nM
- TGI (SF-268 CNS): 75000 nM and > 100000 nM
- TGI (HCT-15 colon): 75000 nM and > 100000 nM
- TGI (HS 578T breast): 75000 nM and 64900 nM
- TGI (OVCAR-4 ovarian): 75000 nM and > 100000 nM
- GI50 (BT-549 breast): 2510 nM and 14000 nM
- TGI (BT-549 breast): 59000 nM and 55100 nM
- TGI (MOLT-4 leukemia): 75000 nM and > 100000 nM
- TGI (RPMI-8226 leukemia): 75000 nM and 74400 nM
- TGI (KM12 colon): 75000 nM and > 100000 nM
- GI50 (NCI/ADR-RES ovarian): 54800 nM and 58800 nM
- TGI (NCI/ADR-RES ovarian): 75000 nM and > 100000 nM
- TGI (SW-620 colon): 75000 nM and > 100000 nM
- GI50 (786-0 renal): 3210 nM and 30300 nM
- TGI (786-0 renal): 75000 nM and > 100000 nM
- TGI (SNB-19 CNS): 75000 nM and > 100000 nM
- TGI (LOX IMVI melanoma): 13200 nM and > 100000 nM
- TGI (K-562 leukemia): 75000 nM and > 100000 nM
- TGI (OVCAR-8 ovarian): 75000 nM and > 100000 nM
- TGI (MCF7 breast): 75000 nM and 94400 nM
- TGI (TK-10 renal): 33000 nM and > 100000 nM
- TGI (SR leukemia): 75000 nM and > 100000 nM
- TGI (SNB-75 CNS): 16400 nM and 70300 nM
- TGI (HT29 colon): 75000 nM and > 100000 nM
- TGI (HCT-116 colon): 75000 nM and > 100000 nM
- TGI (NCI-H226 lung): 75000 nM and 98100 nM
- TGI (NCI-H23 lung): 75000 nM and 84600 nM
- TGI (IGROV1 ovarian): 39000 nM and > 100000 nM
- TGI (CCRF-CEM leukemia): 75000 nM and > 100000 nM
- TGI (SN12C renal): 75000 nM and > 100000 nM
- TGI (SK-MEL-28 melanoma): 75000 nM and > 100000 nM
- TGI (A549 NSCLC): 75000 nM and > 100000 nM
- TGI (SF-295 CNS): 5910 nM and 53600 nM
- TGI (CAKI-1 renal): 11400 nM and > 100000 nM
- TGI (MALME-3M melanoma): 5270 nM and 47300 nM
- TGI (MDA-MB-435): 16000 nM and 98300 nM
- TGI (EKVX NSCLC): 75000 nM and 90900 nM
- TGI (NCI-H460 lung): 17700 nM and 52100 nM
- TGI (DU-145 prostate): 75000 nM and > 100000 nM
- TGI (M14 melanoma): 75000 nM and > 100000 nM

Compound: O=C(/C=C/C12c3ccccc3C(c3ccccc31)C1C(=O)N(c3ccc(Cl)cc3)C(=O)C12)c1ccccn1 (stereo not given)
- GI50 (PC-3 prostate): 331 nM
- TGI (PC-3 prostate): 1870 nM
- GI50 (HCC-2998 colon): 244 nM
- TGI (HCC-2998 colon): 658 nM
- GI50 (SF-268 CNS): 672 nM
- TGI (SF-268 CNS): > 28800 nM
- GI50 (SK-MEL-5 melanoma): 515 nM
- TGI (SK-MEL-5 melanoma): 1210 nM
- GI50 (T-47D breast): 312 nM
- TGI (T-47D breast): 4150 nM
- GI50 (HCT-15 colon): 206 nM
- TGI (HCT-15 colon): 660 nM
- GI50 (OVCAR-4 ovarian): 478 nM
- TGI (OVCAR-4 ovarian): > 30900 nM
- GI50 (ACHN renal): 234 nM
- TGI (ACHN renal): 560 nM
- GI50 (OVCAR-5 ovarian): 309 nM
- TGI (OVCAR-5 ovarian): 1140 nM
- GI50 (BT-549 breast): 171 nM
- TGI (BT-549 breast): 365 nM
- GI50 (MOLT-4 leukemia): 322 nM
- TGI (MOLT-4 leukemia): > 100000 nM
- GI50 (RPMI-8226 leukemia): 234 nM
- TGI (RPMI-8226 leukemia): 682 nM
- GI50 (KM12 colon): 345 nM
- GI50 (NCI/ADR-RES ovarian): 332 nM
- TGI (NCI/ADR-RES ovarian): > 100000 nM
- GI50 (COLO 205 colon): 490 nM
- TGI (COLO 205 colon): 1130 nM
- GI50 (SW-620 colon): 300 nM
- TGI (SW-620 colon): 994 nM
- GI50 (OVCAR-3 ovarian): 224 nM
- TGI (OVCAR-3 ovarian): 520 nM
- GI50 (SF-539 CNS): 258 nM
- TGI (SF-539 CNS): 676 nM
- GI50 (786-0 renal): 194 nM
- TGI (786-0 renal): 398 nM
- GI50 (SNB-19 CNS): 426 nM
- TGI (SNB-19 CNS): 2000 nM
- GI50 (LOX IMVI melanoma): 177 nM
- TGI (LOX IMVI melanoma): 358 nM
- GI50 (A498 renal): 277 nM
- TGI (A498 renal): 792 nM
- GI50 (K-562 leukemia): 267 nM
- TGI (K-562 leukemia): > 100000 nM
- GI50 (HL-60(TB) leukemia): 240 nM
- TGI (HL-60(TB) leukemia): 1350 nM
- GI50 (SK-OV-3 ovarian): 1980 nM
- TGI (SK-OV-3 ovarian): > 100000 nM
- GI50 (OVCAR-8 ovarian): 328 nM
- TGI (OVCAR-8 ovarian): > 100000 nM
- GI50 (HOP-92 NSCLC): 452 nM
- TGI (HOP-92 NSCLC): 1110 nM
- GI50 (MCF7 breast): 313 nM
- TGI (MCF7 breast): > 23000 nM
- GI50 (TK-10 renal): 1460 nM
- TGI (TK-10 renal): 4870 nM
- GI50 (SR leukemia): 241 nM
- TGI (SR leukemia): > 100000 nM
- GI50 (U251 CNS): 256 nM
- TGI (U251 CNS): 740 nM
- GI50 (SNB-75 CNS): 256 nM
- TGI (SNB-75 CNS): 1050 nM
- GI50 (HT29 colon): 335 nM
- TGI (HT29 colon): 8670 nM
- GI50 (HCT-116 colon): 183 nM
- TGI (HCT-116 colon): 423 nM
- GI50 (NCI-H226 lung): 258 nM
- TGI (NCI-H226 lung): 878 nM
- GI50 (HOP-62 NSCLC): 405 nM
- TGI (HOP-62 NSCLC): 2220 nM
- GI50 (NCI-H23 lung): 342 nM
- TGI (NCI-H23 lung): 1360 nM
- GI50 (IGROV1 ovarian): 248 nM
- TGI (IGROV1 ovarian): 643 nM
- GI50 (CCRF-CEM leukemia): 290 nM
- TGI (CCRF-CEM leukemia): > 100000 nM
- GI50 (SK-MEL-2 melanoma): 529 nM
- TGI (SK-MEL-2 melanoma): 2740 nM
- GI50 (RXF 393 renal): 187 nM
- TGI (RXF 393 renal): 448 nM
- GI50 (NCI-H522 lung): 260 nM
- TGI (NCI-H522 lung): 1010 nM
- GI50 (UO-31 renal): 178 nM
- TGI (UO-31 renal): 399 nM
- GI50 (MDA-MB-231 breast): 318 nM
- TGI (MDA-MB-231 breast): 2230 nM
- GI50 (UACC-257 melanoma): 390 nM
- TGI (UACC-257 melanoma): 1960 nM
- GI50 (SN12C renal): 320 nM
- TGI (SN12C renal): 1570 nM
- GI50 (SK-MEL-28 melanoma): 342 nM
- TGI (SK-MEL-28 melanoma): 1610 nM
- GI50 (A549 NSCLC): 288 nM
- TGI (A549 NSCLC): 989 nM
- GI50 (SF-295 CNS): 379 nM
- TGI (SF-295 CNS): 2030 nM
- GI50 (UACC-62 melanoma): 279 nM
- TGI (UACC-62 melanoma): 973 nM
- GI50 (CAKI-1 renal): 1070 nM
- TGI (CAKI-1 renal): 4950 nM
- GI50 (MALME-3M melanoma): 242 nM
- TGI (MALME-3M melanoma): 639 nM
- GI50 (MDA-MB-435): 301 nM
- TGI (MDA-MB-435): 981 nM
- GI50 (EKVX NSCLC): 381 nM
- TGI (EKVX NSCLC): 2380 nM
- GI50 (NCI-H460 lung): 232 nM
- TGI (NCI-H460 lung): 568 nM
- GI50 (DU-145 prostate): 283 nM
- TGI (DU-145 prostate): 747 nM
- GI50 (M14 melanoma): 300 nM
- TGI (M14 melanoma): 1190 nM
